Laboratory results: PMC7414031, “Correlation between hemolytic activity, cytotoxicity and systemic in vivo toxicity of synthetic antimicrobial peptides” (Scientific Reports, 2020)
≈ marks a conversion by molar mass, not a printed value. Peptide text beside a SMILES is read from it.

Key:
[1] = in vitro; assay type: cell-based, human; conditions: human
Outline: (§1)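 Washed heparinized erythrocytes (~5 × 10^8 RBC/mL in PBS) incubated 1 h at 37 °C with peptides in serial 1:1 dilutions (150 to 1.2 µM final). Haemoglobin release read at 405 nm in supernatant; % haemolysis relative to 1% Triton X-100 (100%) and PBS diluent (0%).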

[2] = tested on: human erythrocytes; test: in vitro; assay type: cell-based; conditions: for IC10 haemolysis: human erythrocytes; for IC50: red cells of human
Outline: as §1

[3] = in vitro; assay type: cell-based, dog; conditions: dog
Outline: as §1

[4] = tested on: canine erythrocytes; test: in vitro; assay type: cell-based, dog; conditions: for IC10 haemolysis: canine erythrocytes; for IC50: red cells of canine
Outline: as §1

[5] = in vitro; assay type: cell-based, rat (Sprague–Dawley); conditions: Sprague-Dawley, rat
Outline: as §1

[6] = tested on: rat erythrocytes; test: in vitro; assay type: cell-based, rat (Sprague–Dawley); conditions: for IC10 haemolysis: rat erythrocytes; for IC50: red cells of rat
Outline: as §1

[7] = in vitro; assay type: cell-based, bovine; conditions: bovine
Outline: as §1

[8] = tested on: bovine erythrocytes; test: in vitro; assay type: cell-based; conditions: bovine erythrocytes
Outline: as §1

[9] = tested on: Staphylococcus pseudintermedius; conditions: cited from earlier work
[10] = tested on: Staphylococcus aureus; parameters: method as in PMID 30842436; conditions: cited from earlier work
[11] = tested on: Pseudomonas aeruginosa; parameters: method as in PMID 30842436; conditions: cited from earlier work
[12] = tested on: human erythrocytes; conditions: cited from earlier work

SMILES	hemolysis at 1 h, 150 µM [1]	IC10 haemolysis [2]	IC50 [2]	hemolysis at 1 h, 150 µM [3]	IC10 haemolysis [4]	IC50 [4]	hemolysis at 1 h, 150 µM [5]	IC10 haemolysis [6]	IC50 [6]	hemolysis at 1 h, 150 µM [7]	IC10 haemolysis [8]	MIC against Staphylococcus pseudintermedius [9]	MIC against Staphylococcus aureus [10]	MIC against Pseudomonas aeruginosa [11]	Previously reported haemolytic activity against human erythrocytes (in words) [12]	Haemolysis at 80 µM (in words) [2]	Haemolysis at 80 µM (in words) [4]	Haemolysis at 80 µM (in words) [6]
CC(C)C[C@H](NC(=O)[C@H](CCCCN)NC(=O)[C@@H](N)CCCCN)C(=O)N[C@@H](CCCCN)C(=O)N[C@@H](Cc1cccc2ccccc12)C(=O)N[C@@H](Cc1ccccc1)C(=O)N[C@@H](Cc1cccc2ccccc12)C(N)=O [Compound 6, Lys-Lys-Leu-Lys-(1-Nal)Ala-Phe-(1-Nal)Ala] (HELM PEPTIDE1{K.K.L.K.[O=C([C@H](Cc1cccc2ccccc12)N[*:1])[*:2]].F.[O=C([C@H](Cc1cccc2ccccc12)N[*:1])[*:2]].[am]}$$$$V2.0; N-terminus assumed)	42.7%	55.6 µM	> 150 µM	101%	12.2 µM	37 µM	18.2%	120.5 µM	> 150 µM	39.9%	23.6 µM	8 µg/mL (≈ 7.57 µM)	32 µg/mL (≈ 30.3 µM)	8 µg/mL (≈ 7.57 µM)	high in vitro haemolytic activity			
CC(C)C[C@H](NC(=O)[C@H](CCCCN)NC(=O)[C@H](CCCCN)NC(=O)[C@@H](N)CCCCN)C(=O)N[C@@H](Cc1cccc2ccccc12)C(=O)N[C@@H](Cc1ccccc1)C(=O)N[C@@H](Cc1cccc2ccccc12)C(N)=O [Compound 7, Lys-Lys-Lys-Leu-(1-Nal)Ala-Phe(1-Nal)Ala] (HELM PEPTIDE1{K.K.K.L.[O=C([C@H](Cc1cccc2ccccc12)N[*:1])[*:2]].F.[O=C([C@H](Cc1cccc2ccccc12)N[*:1])[*:2]].[am]}$$$$V2.0)	83.8%	35.2 µM	82.6 µM	102%	32.7 µM	47.2 µM	54.3%	76.9 µM	143 µM	16%	118.8 µM	8 µg/mL (≈ 7.57 µM)	16 µg/mL (≈ 15.1 µM)	16 µg/mL (≈ 15.1 µM)	high in vitro haemolytic activity	near total haemolysis	near total haemolysis	near total haemolysis
